Measurements from publication PMC6891813, “Piltunines A–F from the Marine-Derived Fungus Penicillium piltunense KMM 4668” (Marine Drugs, 2019).

Key:
[1] = test system: human drug-resistant prostate cancer 22Rv1 cell; test: MTT cytotoxicity assay, 22Rv1 cells; assay type: cell-based; settings: for IC50 / viability at 100 µM: Homo sapiens, 22Rv1; for IC50: 72 h treatment; for viability at 100 µM: read-out: Viability at 100 µM, % of Control, 22Rv1 Cells; for SI (selectivity index): [viability of PNT-2 cells]/[viability of 22Rv1 cells] at 100 µM
Text: (§1) We have investigated the effect of the isolated compounds 1, 1a, 2, 7–9 on the viability of human drug-resistant prostate cancer 22Rv1 cell as well as on human prostate non-cancer PNT-2 cells using an MTT assay (Table 3). We have also determined a selectivity index (SI) at for all the tested substances (Table 3). […] Note, 22Rv1 cells are known to be resistant to the hormone therapy due to the expression of androgen receptor splice variant AR-V7 [15]. Thus, the compounds which are active inAR-V7-positive 22Rv1 cells are of high clinical interest.
(§2) The human prostate cancer cells 22Rv1 and human prostate non-cancer cells PNT-2 were purchased from ATCC. Cell lines were cultured according to the manufacturers instructions in 10% FBS/RPMI media (Invitrogen). Cells were continuously kept in culture for a maximum of 3 months, and were routinely inspected microscopically for stable phenotype and regularly checked for contamination with mycoplasma. The authentity of the cells has recently been confirmed by the Multiplexion (Heidelberg, Germany) using highly polymorphic short tandem repeat loci.
(§3) The in vitro cytotoxicity of individual substances was evaluated using the MTT (3-(4,5-dimethylthiazol-2-yl)-2,5-diphenyltetrazolium bromide) assay, which was performed as previously described. The vehicle (DMSO) treated cells were used as a negative control. Treatment time was 72 h.

[2] = test system: human prostate non-cancer PNT-2 cells; test: MTT cytotoxicity assay, PNT-2 cells; assay type: cell-based; settings: Homo sapiens, PNT2, 72 h treatment
Text: as §1, §2, §3

[3] = MTT cytotoxicity assay, PNT-2 cells; assay type: cell-based, human; settings: human, PNT-2 prostate non-cancer cells, 100 µM, 72 h, read-out: Viability at 100 µM, % of Control, PNT-2 Cells
Text: as §1, §2, §3

[4] = test system: murine peritoneal macrophages co-incubated with lipopolysaccharide (LPS); test: ROS level analysis in LPS-treated macrophages (DCF-DA fluorescence); assay type: cell-based, Mice BALB/c; settings: 10 μM, 1 h at 37 °C, LPS co-incubation; p < 0.05
Method: Figure 5 Effect of compounds on reactive oxygen species (ROS) level in murine peritoneal macrophages co-incubated with lipopolysaccharide (LPS). The compounds were tested at a concentration of 10 μM. Time of cell incubation with compounds was 1 h at 37 °C. * p < 0.05. (Student’s t-test).
The suspension of macrophages on 96-well plates (2 × 10^4 cells/well) were washed withphosphate-buffered saline (PBS) and treated with 180 µL/well of the tested compounds (10 μM) for 1 h and 20 µL/well LPS from E. coli serotype 055:В5 (Sigma-Aldrich, MA, USA, 1.0 μg/mL), which were both dissolved in PBS and cultured at 37 °C in a CO2-incubator for one hour. For the ROS levels measurement, 200 μL of 2,7-dichlorodihydrofluorescein diacetate (DCF-DA, Sigma, final concentration 10 μM) fresh solution was added to each well, and the plates were incubated for 30 min at 37 °C. The intensity of DCF-DA fluorescence was measured at λex 485 n/λem 518 nm using the plate reader PHERAstar FS (BMG Labtech, Offenburg, Germany).
Mice BALB/c were sacrificed by cervical dislocation. Peritoneal macrophages were isolated using standard procedures. For this purpose, 3 ml of PBS (pH 7.4) was injected into the peritoneal cavity and the body intensively palpated for 1–2 min. Then the peritoneal fluid was aspirated with a syringe. […]

[5] = test system: LPS-stimulated macrophages; test: NO (RNS) level analysis in LPS-treated macrophages (DAF FM-DA fluorescence); assay type: cell-based, Mice BALB/c; settings: 1 μM (non-toxic concentration); p < 0.05
Method: Compound 9 suppressed NO production in LPS-stimulated macrophages at non-toxic concentration of 1 μM. NO level in these cells was decreased by 24.1 ± 0.7% (p < 0.05, Student’s t-test) in comparison with LPS-treated control (data not shown). Therefore, compound 9 may be a promising candidate for the therapy of inflammatory diseases accompanying overproduction of NO.
The suspension of macrophages on 96-well plates (2 × 10^4 cells/well) were washed with the PBS and treated with 180 µL/well of the tested compounds (10 μM) for 1 h and 20 µL/well LPS from E. coli serotype 055:В5 (Sigma, 1.0 μg/mL), which were both dissolved in PBS and cultured at 37 °C in a CO2-incubator for one hour. For the RNS levels measurement, 200 μL Diaminofluorescein-FM diacetate (DAF FM-DA, Sigma, final concentration 10 μM) fresh solution was added to each well, and the plates were incubated for 40 min at 37 °C, then replace with fresh PBS, and then incubated for an additional 30 min to allow complete de-esterification of the intracellular diacetates. The intensity of DAF FM-DA fluorescence was measured at λex 485 n/λem 520 nm using the plate reader PHERAstar FS (BMG Labtech, Offenburg, Germany).
Mice BALB/c were sacrificed by cervical dislocation. Peritoneal macrophages were isolated using standard procedures. […]

SMILES | IC50 ([1]; MTT assay, positive control) [µM] | IC50 ([2]; positive control) [µM] | viability at 100 µM ([1]; 72 h, MTT assay) [%] | IC50 ([1]; MTT assay) [µM] | Cytotoxicity in cancer cells in comparison with the other substances ([1]; MTT assay, 72 h) | viability at 72 h, 100 µM [3] [%] | IC50 [2] [µM] | SI (selectivity index) ([1]; 72 h) | Effect on ROS production [4] | Decrease of NO level in comparison with LPS-treated control [5] [%]
CC(=O)O[C@@]12CO[C@@H]1C[C@H](O)[C@@]1(C)C(=O)[C@H](O)C3=C(C)[C@@H](OC(=O)[C@H](O)[C@@H](NC(=O)OC(C)(C)C)c4ccccc4)C[C@@](O)([C@@H](OC(=O)c4ccccc4)[C@H]21)C3(C)C [Docetaxel, reference compound] | 0.00278 ± 0.00107 | 0.0847 ± 0.0206 |  |  |  |  |  |  |  | 
C[C@H]1CCC[C@H](C[C@H]2Cc3cc(O)cc(O)c3C(=O)O2)O1 [Compound 8, cladosporin] |  |  | 38.7 | 71.7 ± 8.9 | most cytotoxic in cancer cells | 88.1 | > 100 |  |  | 
CC(=O)OC/C(C)=C1\CC[C@]23CO[C@H](C2)[C@@](O)(C(=O)O)CC[C@@H]13 [Compound 2, Piltunine B] |  |  | 61.9 | > 100 |  | 82.9 | > 100 | 1.34 |  | 
CC(=O)C1=CC[C@]23CO[C@H](C2)[C@@](O)(C(=O)O)CC[C@@H]13 [Compound 5, Piltunine E] |  |  |  |  |  |  |  |  | significant down-regulation of ROS production | 
C=C(C)C1(O)CCC23COC(C2)C(O)(C(=O)O)CCC31 (centres unmarked) [Compound 7, penigrisacid D] |  |  | 63.8 | > 100 |  | 80.7 | > 100 | 1.26 |  | 
COC(=O)C1(O)CCC2C(=C(C)CO)CCC23COC1C3 (centres unmarked) [Compound 1a] |  |  | 62.2 | > 100 |  | 80.4 | > 100 | 1.29 |  | 
CC1OC(CC2Cc3cc(O)cc(O)c3C(=O)O2)CCC1O (centres unmarked) [Compound 9, 5’-hydroxyasperentin] |  |  | 54.9 | > 100 |  | 55.5 | > 100 | 1.01 | significant down-regulation of ROS production | 24.1 ± 0.7
CC(CO)=C1CCC23COC(C2)C(O)(C(=O)O)CCC13 (centres unmarked) [Compound 1, Piltunine A] |  |  | 65.5 | > 100 |  | 97.2 | > 100 | 1.48 |  | 
